Test results published in publication PMC9600550, “The pH Robustness of Bacterial Sensing” (mBio, 2022).
Values joined by “and” are separate entries in the source; they are usually repeats but may differ in a detail not shown here. Equal values may be shown once. Read-outs that look alike come from different tables or passages of the source.

Assays:
[1] = target: T1, MBP (Escherichia coli, UniProt P0AEX9); test: ITC titration of maltose-binding protein (MBP) with D-maltose at different pH; design: species or system E. coli K12
T1 construct: His tag (from pET28b(+)) (N); made in house; host or cells: Escherichia coli BL21(DE3)

[2] = target: T2, McpS-Tar (UniProt P07017+Q88E10); test: FRET (CheY-YFP/CheZ-CFP) chemotaxis pathway response, McpS-Tar hybrid as sole chemoreceptor; type: cell-based; details: E. coli VS181 with McpS-Tar as sole chemoreceptor, read-out: EC50 (half-maximal effective concentration), FRET titration
T2 construct: 295]-Tar[200-553] receptor; expressed in transfected cells; host or cells: receptorless E. coli VS181, plasmid pSB10 (pKG116 derivative)

[3] = target: T3, CtpM-LBD (Pseudomonas aeruginosa, UniProt Q9I0I6); test: ITC titration of CtpM-LBD with L-malate at different pH; type: binding, P. aeruginosa PAO1
T3 construct: containing a DNA fragment encoding the CtpM (PA2652)-LBD; made in house

[4] = target: T4, McpS-LBD (Pseudomonas putida, UniProt Q88E10); test: ITC titration of McpS-LBD with L-malate at different pH; type: binding, P. putida KT2440; details: 25°C
T4 construct: pET28b(+) derivative containing a DNA fragment encoding the McpS-LBD; made in house

[5] = target: T5, PcaY_PP-LBD (Pseudomonas putida, UniProt Q88JK6); test: ITC titration of PcaY_PP-LBD with quinate at different pH; type: binding, P. putida KT2440
T5 construct: made in house
Method: To assess the pH dependence of ligand-binding, freshly purified proteins were dialyzed overnight into the buffers described in Table S1 and submitted to microcalorimetric titration.
Freshly purified proteins were dialyzed into the buffers specified in Table S1 and introduced into the sample cell of an VP-microcalorimeter (MicroCal). Proteins at 15 to 100 μM were titrated with 0.25 to 10 mM ligand solutions that were made up in dialysis buffer. For pH-active ligands, the pH of the ligand solutions was adjusted to that of the dialysis buffer by the addition of concentrated HCl or NaOH. Titrations of MBP and McpV-LBD were conducted at 15°C to favor endothermic contributions to binding heats, whereas the remaining titrations were carried out at 25°C. Raw titration data were integrated, corrected for ligand-dilution heats and normalized with the ligand concentrations. Resulting data were fitted with the “One Binding site model” of the MicroCal version of ORIGIN. Provided are the dissociation constants derived from one experiment and the error of curve-fitting.

[6] = target: McpV-LBD (Sinorhizobium meliloti, UniProt Q7APD1); test: ITC titration of McpV-LBD with propionate at different pH; type: binding, Sinorhizobium meliloti RU11/001
[7] = target: T6, Tar-LBD (Escherichia coli, UniProt P07017); test: Differential scanning calorimetry of Tar-LBD thermal unfolding in presence of L-Asp; design: species or system E. coli K12; details: 1 mM L-Asp
T6 construct: A DNA fragment encoding the Tar-LBD (amino acids 31 to 188) was amplified from genomic DNA of E. coli K12; His tag (from pET28b(+)) (N); made in house; host or cells: Escherichia coli BL21(DE3)
Method: Differential scanning calorimetry (DSC) provides information on the thermodynamics of protein unfolding. At 5.0, the optimal pH for binding and dimerization, Tar-LBD formed a sharp peak with or without 1 mM L-Asp (Fig. 5B and C, and Table S3), indicative of highly cooperative unfolding. […] We thus conclude that at all pH values tested, at least some of the protein was present in the dimeric form and capable of binding ligand.
Experiments were conducted on a MicroCal DSC-PEAQ system (Malvern Panalytical) at a scan rate of 90°C/h over a temperature range of 10°C to 85°C. Calorimetric cells (operating volume 0.134 mL) were kept under pressure (60 lb/in^2) to prevent sample degassing. Buffer-buffer baselines obtained after each assay were subtracted from the signal obtained from each of the samples. Protein samples were prepared as detailed in the “Analytical ultracentrifugation” section. The calorimetric enthalpies were estimated by integration of the transition peaks after subtracting the buffer-buffer baselines and fitting the curves to a “Non-two-state” model using MicroCal DSC-PEAQ software. For graphical clarity of the plots, baselines were manually curated and raw data were smoothed with the Savitzky-Golay algorithm.

[8] = target: T6, Tar-LBD; test: ITC titration of Tar-LBD with L-aspartate at different pH; type: binding, E. coli K12; details: for pH range of binding: defined as binding with a KD below 1 mM
[9] = target: T7, Tar (Escherichia coli, UniProt P07017); test: FRET (CheY-YFP/CheZ-CFP) chemotaxis pathway response, Tar as sole chemoreceptor; type: cell-based; details: E. coli VS181 with Tar as sole chemoreceptor, read-out: EC50 (half-maximal effective concentration), FRET titration
T7 construct: expressed in transfected cells; host or cells: receptorless E. coli VS181, plasmid pSB13 (pKG116 derivative)

[10] = target: T6, Tar-LBD; test: Sedimentation-velocity analytical ultracentrifugation of Tar-LBD with and without L-Asp; design: species or system E. coli K12; details: 1 mM ligand; all pH values analysed (3.5, 5.0, 7.0, 10.0)
Method: To estimate the sedimentation coefficient expected for the monomeric and dimeric states of the Tar-LBD, a hydrodynamic model was generated from the 3D structure of the protein (pdb ID 4Z9H) ([45]). Using the HYDROPRO software, the theoretical sedimentation coefficients were s(20,w) = 2.12 S for the monomer and 3.54 S for the dimer (Fig. 5A).
Experiments were conducted on a ProteomeLab XL-I instrument (Beckman-Coulter) equipped with interference and absorbance optics. Sedimentation was carried out at 42,000 rpm and 10°C in an eight-hole Ti-50 Beckman Coulter rotor and monitored with absorbance optics at 280 nm in continuous mode. Samples were dialyzed into 4 different buffers, namely, 10 mM citric acid/sodium citrate, pH 3.5; 10 mM citric acid/sodium citrate, pH 5.0; 3 mM Tris, 3 mM PIPES, 3 mM MES, pH 7.0, and 10 mM Na2CO3/NaHCO3, pH 10.0. […] Density and viscosity of the buffer were calculated with [sequence] […] To assign the sedimentation coefficient observed to the corresponding oligomeric species, theoretical s values were calculated via HYDROPRO ([92]) hydrodynamic modeling software, applied to the 3D structure of the Tar-LBD monomer and dimer (pdb ID 4H9Z), with a 2.9 Å radius for the primary elements.

[11] = target: T8, PctA-LBD (Pseudomonas aeruginosa, UniProt G3XD24); test: ITC titration of PctA-LBD with L-alanine at different pH; type: binding, P. aeruginosa PAO1
T8 construct: pET28b(+) derivative containing a DNA fragment encoding the PctA-LBD; made in house

[12] = tested on: P. aeruginosa PAO1; test: Quantitative capillary chemotaxis assay at different pH; type: cell-based; details: 1 mM ligand
Method: We evaluated the effect of pH on P. aeruginosa chemotaxis to L-Ala, a ligand of the PctA chemoreceptor, using the quantitative capillary chemotaxis assay. Prior to performing these assays, we evaluated cell viability and motility at different pH values. We grew cells in minimal medium to an OD660 of 0.4, washed twice with chemotaxis buffer at the different pH values, resuspended in the corresponding buffer, and incubated for 1 h. Cells were then plated out to assess cell viability. […] We then determined the effect of different pH on the chemotactic responses to L-Ala.
Chemotaxis assays were performed as previously described ([79]) with some modifications. When cultures reached an OD660 of 0.4, the cells were gently washed twice with chemotaxis buffer at different pH and then resuspended in fresh buffer. The chemoeffector solutions were prepared in the corresponding chemotaxis buffer. Data are the means and standard deviations of at least 3 biological replicates conducted in triplicate.

[13] = target: (UniProt A0A4D6XHN3); test: ITC titration of E6B08_RS28125 with L-ornithine at different pH; type: binding, P. putida 1290; details: 25°C, pH 9.0, read-out: KD at pH optimum
[14] = 15°C, defined as binding with a KD below 1 mM
[15] = 25°C, defined as binding with a KD below 1 mM

T5 sequence (Q88JK6 44-196): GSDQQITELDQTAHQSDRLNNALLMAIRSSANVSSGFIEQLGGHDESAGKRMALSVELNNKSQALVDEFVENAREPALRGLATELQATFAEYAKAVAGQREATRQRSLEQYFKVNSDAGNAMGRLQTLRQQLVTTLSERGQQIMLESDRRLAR
Chain of McpV-LBD (Q7APD1 entry or part of it): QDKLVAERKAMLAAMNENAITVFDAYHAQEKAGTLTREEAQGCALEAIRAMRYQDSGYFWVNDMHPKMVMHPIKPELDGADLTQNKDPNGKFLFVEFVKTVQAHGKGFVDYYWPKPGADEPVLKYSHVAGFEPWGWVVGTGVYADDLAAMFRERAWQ
T4 sequence (Q88E10 41-283): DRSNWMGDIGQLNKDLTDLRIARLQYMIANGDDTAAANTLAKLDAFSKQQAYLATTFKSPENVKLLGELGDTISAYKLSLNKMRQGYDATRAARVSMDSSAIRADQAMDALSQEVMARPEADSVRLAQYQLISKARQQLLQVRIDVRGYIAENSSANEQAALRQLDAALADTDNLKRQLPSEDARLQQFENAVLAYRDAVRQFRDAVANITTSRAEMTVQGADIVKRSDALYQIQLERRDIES
T3 sequence (Q9I0I6 33-205): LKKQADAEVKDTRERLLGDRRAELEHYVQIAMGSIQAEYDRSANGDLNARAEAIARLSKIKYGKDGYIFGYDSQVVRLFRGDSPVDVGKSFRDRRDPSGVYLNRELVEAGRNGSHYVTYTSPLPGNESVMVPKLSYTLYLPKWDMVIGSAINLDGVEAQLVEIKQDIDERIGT
T8 sequence (G3XD24 32-276): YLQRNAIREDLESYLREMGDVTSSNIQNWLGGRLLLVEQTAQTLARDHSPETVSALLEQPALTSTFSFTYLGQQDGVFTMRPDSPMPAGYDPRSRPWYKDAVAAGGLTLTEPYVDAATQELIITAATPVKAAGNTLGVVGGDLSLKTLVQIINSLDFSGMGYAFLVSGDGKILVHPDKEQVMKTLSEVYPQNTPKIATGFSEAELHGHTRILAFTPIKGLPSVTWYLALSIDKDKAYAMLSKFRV
T2 sequence (Q88E10+P07017 fused): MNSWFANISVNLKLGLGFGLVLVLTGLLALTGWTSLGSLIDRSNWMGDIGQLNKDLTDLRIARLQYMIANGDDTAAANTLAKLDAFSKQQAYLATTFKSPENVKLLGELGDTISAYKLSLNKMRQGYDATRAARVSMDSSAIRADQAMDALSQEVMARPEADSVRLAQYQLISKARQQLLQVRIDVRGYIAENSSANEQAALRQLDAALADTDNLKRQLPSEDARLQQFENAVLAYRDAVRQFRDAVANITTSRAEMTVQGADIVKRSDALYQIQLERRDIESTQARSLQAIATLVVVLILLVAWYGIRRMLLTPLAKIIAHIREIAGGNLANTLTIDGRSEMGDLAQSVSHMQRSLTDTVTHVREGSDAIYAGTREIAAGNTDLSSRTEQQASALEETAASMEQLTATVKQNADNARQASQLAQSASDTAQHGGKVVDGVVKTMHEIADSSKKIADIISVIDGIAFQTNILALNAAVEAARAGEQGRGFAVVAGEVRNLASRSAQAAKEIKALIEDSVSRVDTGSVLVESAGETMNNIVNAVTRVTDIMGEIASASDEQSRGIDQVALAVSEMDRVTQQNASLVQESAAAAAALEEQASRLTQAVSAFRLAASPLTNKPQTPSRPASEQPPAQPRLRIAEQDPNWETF
T7 sequence (P07017 whole entry): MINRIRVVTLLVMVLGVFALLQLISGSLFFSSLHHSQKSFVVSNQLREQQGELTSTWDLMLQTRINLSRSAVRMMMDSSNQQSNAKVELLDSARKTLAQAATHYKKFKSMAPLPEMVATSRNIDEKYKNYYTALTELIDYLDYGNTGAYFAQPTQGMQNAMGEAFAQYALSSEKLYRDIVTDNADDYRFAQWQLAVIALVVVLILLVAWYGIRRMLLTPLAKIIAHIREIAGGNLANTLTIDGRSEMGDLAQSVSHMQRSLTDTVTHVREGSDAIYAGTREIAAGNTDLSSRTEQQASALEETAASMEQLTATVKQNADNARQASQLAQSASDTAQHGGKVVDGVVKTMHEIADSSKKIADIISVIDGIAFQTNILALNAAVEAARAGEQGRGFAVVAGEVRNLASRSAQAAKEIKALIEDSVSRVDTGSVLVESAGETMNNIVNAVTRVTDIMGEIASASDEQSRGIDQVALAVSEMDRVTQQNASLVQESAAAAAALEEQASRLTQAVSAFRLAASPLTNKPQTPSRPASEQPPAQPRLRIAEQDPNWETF
T6 sequence (P07017 31-188): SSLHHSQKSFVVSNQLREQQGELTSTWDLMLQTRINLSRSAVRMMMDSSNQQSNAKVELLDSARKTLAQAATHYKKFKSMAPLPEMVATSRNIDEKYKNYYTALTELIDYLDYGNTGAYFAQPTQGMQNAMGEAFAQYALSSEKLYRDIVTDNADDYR
Chain of (UniProt A0A4D6XHN3) (A0A4D6XHN3 24-265 limits assumed): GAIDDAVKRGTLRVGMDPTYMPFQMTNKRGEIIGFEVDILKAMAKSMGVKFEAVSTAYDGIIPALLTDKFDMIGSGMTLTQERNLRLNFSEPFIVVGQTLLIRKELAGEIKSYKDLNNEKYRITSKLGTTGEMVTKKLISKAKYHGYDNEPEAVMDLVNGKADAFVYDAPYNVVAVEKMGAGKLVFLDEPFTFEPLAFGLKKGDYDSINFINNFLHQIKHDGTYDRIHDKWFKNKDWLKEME

Q: Which results are given for `OC[C@H]1O[C@H](O[C@H]2[C@H](O)[C@@H](O)[C@H](O)O[C@@H]2CO)[C@H](O)[C@@H](O)[C@@H]1O` [D-maltose]?
A: width of pH range of ligand recognition [1]: 8.5 pH units; pH optimum ([1]; 15°C): 9.0; pH range of binding [1, 14]: 2.5-11.0

Q: With `O=C(O)C[C@H](O)C(=O)O` [L-malate] as the compound, how does the EC50 ([2]; pH 5.5) read?
A: 9.38 ± 1.9 µM

Q: And the EC50 ([2]; pH 7.0)?
A: 2.18 ± 0.41 µM

Q: And the EC50 ([2]; pH 8.5)?
A: 7.66 ± 1.9 µM

Q: What about the “width of pH range of high-affinity binding” value [3] of the same compound?
A: 4.5 pH units

Q: And the pH optimum ([3]; 25°C)?
A: 6.5

Q: What about the “pH range of binding” value [3, 15] of the same compound?
A: 4.5-9.0

Q: What about the Kd ([3]; 25°C, pH 6.5, read-out: KD at pH optimum) of the same compound?
A: 38.7 µM

Q: And the pH optimum [4]?
A: 5.5

Q: And the “pH range of binding” value ([4]; defined as binding with a KD below 1 mM)?
A: 3.0-10.0

Q: What about the Kd ([4]; pH 5.5, read-out: KD at pH optimum) of the same compound?
A: 4 µM

Q: With `O=C(O)[C@]1(O)C[C@@H](O)[C@@H](O)[C@H](O)C1` [Quinate] as the compound, how does the Kd [5] read?
A: 1.22 µM

Q: What about the pH optimum ([5]; ITC, 25°C) of the same compound?
A: 5.0

Q: And the “pH range of binding” value ([5]; ITC, 25°C, defined as binding with a KD below 1 mM)?
A: 3.5-11.5

Q: And the “width of pH profile of binding” value ([5]; ITC, pH 3.5-11.5)?
A: 8 pH units

Q: For `CCC(=O)O` [Propionate], which “width of pH range of high-affinity binding” value [6] is on record?
A: 6.5 pH units

Q: And the pH optimum ([6]; 15°C)?
A: 7.0

Q: And the “pH range of binding” value [6, 14]?
A: 5.0-11.5

Q: What about the Kd ([6]; 15°C, pH 7.0, read-out: KD at pH optimum) of the same compound?
A: 33.1 µM

Q: Which “Tm of Tar-LBD thermal unfolding” value ([7]; pH 3.5, two transitions) does the source give for `N[C@@H](CC(=O)O)C(=O)O` [L-aspartate] here?
A: 44.28 ºC and 64.51 ºC

Q: What about the “Tm of Tar-LBD thermal unfolding” value ([7]; pH 5.0) of the same compound?
A: 47.73 ºC

Q: And the “ΔH of Tar-LBD thermal unfolding” value ([7]; pH 5.0)?
A: 106.4 kcal/mol

Q: What about the “Tm of Tar-LBD thermal unfolding” value ([7]; pH 7.0, two transitions) of the same compound?
A: 36.48 ºC and 42.20 ºC

Q: What about the “Tm of Tar-LBD thermal unfolding” value ([7]; pH 10.0) of the same compound?
A: 35.11 ºC

Q: What about the “ΔH of Tar-LBD thermal unfolding” value ([7]; pH 10.0) of the same compound?
A: 98.6 kcal/mol

Q: What about the pH optimum ([8]; 25°C) of the same compound?
A: 5.0

Q: What about the “pH range of binding” value ([8]; 25°C) of the same compound?
A: 3.0-10.5

Q: And the “pH range of binding” value ([8]; 25°C, listed as L-Asp)?
A: ≤ 10.5

Q: What about the Kd ([8]; 25°C, pH 5.0, read-out: KD at pH optimum) of the same compound?
A: 0.4 µM

Q: What about the “width of pH range of high-affinity binding” value ([8]; pH 3.0 to 10.5) of the same compound?
A: 7.5 pH units

Q: What about the EC50 ([9]; pH 5.5) of the same compound?
A: 0.166 ± 0.02 µM

Q: And the EC50 ([9]; pH 7.0)?
A: 0.202 ± 0.02 µM

Q: And the EC50 ([9]; pH 8.5)?
A: 0.077 ± 0.01 µM

Q: What about the EC50 ([9]; pH 9.5) of the same compound?
A: 0.141 ± 0.02 µM

Q: What about the “effect on Tar-LBD monomer-dimer equilibrium” value [10] of the same compound?
A: shifted the equilibrium almost completely to the dimeric species

Q: How did the pH optimum ([11]; 25°C) turn out when `C[C@H](N)C(=O)O` [L-alanine] was run?
A: 5.5

Q: What about the “pH range of binding” value [11, 15] of the same compound?
A: 3.0-11.5

Q: What about the Kd ([11]; average over the pH range 3.0 to 11.0, read-out: average dissociation constant (KD)) of the same compound?
A: 1.26 ± 0.7 µM

Q: What about the Kd ([11]; pH 3.0, read-out: dissociation constant (KD)) of the same compound?
A: 1.3 µM

Q: What about the “width of pH range of high-affinity binding” value ([11]; pH 3.0 to 11.5) of the same compound?
A: 8.5 pH units

Q: And the Kd ([11]; pH 9.0, read-out: dissociation constant (KD))?
A: 0.91 µM

Q: What about the Kd ([11]; pH 11.0, read-out: dissociation constant (KD)) of the same compound?
A: 3.9 µM

Q: What about the “pH of optimal chemotactic responses” value [12] of the same compound?
A: 7.0

Q: With `NCCC[C@H](N)C(=O)O` [L-ornithine] as the compound, how does the Kd [13] read?
A: 0.66 µM
